Measured values from paper PMC4691102, “Antioxidant and ACE Inhibitory Bioactive Peptides Purified from Egg Yolk Proteins” (International Journal of Molecular Sciences, 2015).

Assays:
[1] = target: angiotensin converting enzyme (ACE) (Homo sapiens, UniProt P12821); test: ACE inhibitory activity by HPLC (HHL substrate, hippuric acid at 228 nm); conditions: peptide 10 mg/mL versus captopril 0.5 mg/mL, Dunnett's test, p < 0.05, Figure 8
Protocol: The measurement of ACE inhibitory activity was conducted using HPLC in accordance with a modified method of Wu et al. [53]. All samples were prepared with 100 mM borate buffer, containing 300 mM NaCl at pH = 8.3. […] The peptide fractions and HHL were mixed and maintained at 37 °C for 10 min in 2 mL polyethylene microcentrifuge tubes. ACE was maintained at 37 °C for 10 min before the two solutions were combined. The combined mixture was incubated at 37 °C for 30 min with continuous agitation. In order to terminate the reaction, 85 μL of 1 M HCl was added. Samples were analyzed on a C18 column (3.0 mm × 150 mm, 5 μm, phenomenex) and hippuric acid (HA) and HHL were detected at 228 nm using HPLC system (Ultimate 3000 HPLC, Thermo Fisher Scientific Inc., Loughborough, UK). Data were analyzed using integration software (Chromeleon, Thermo Fisher Scientific Inc., Loughborough, UK).

[2] = Ferrous chelating activity assay (ferrozine); conditions: EDTA 0.2 mg/mL, 10 min room temperature, 563 nm, mean ± SD of three independent experiments
Protocol: The activity of the peptide to chelate ferrous Fe^2+ ions was measured according to the method of Ebrahimzadeh et al.. The reaction mixture contained 0.5 mL of isolated peptides at different concentrations (0.5, 1, 5, 10 and 20 mg/mL), 1.6 mL deionized water and 0.05 mL of 2 mM FeCl2. After 30 s, 0.1 mL of 5 mM ferrozine was added. After 10 min at room temperature, the absorbance of the Fe^2+-ferrozine complex was measured at 563 nm. EDTA (0.2 mg/mL) was also tested as a positive control for comparison. The activity of the peptide to chelate Fe^2+ was calculated as: Chelating ability (%) =AC−AS/AC×100 where AC is the absorbance of the control, using 0.5 mL deionized water instead of sample, AS is the absorbance of the sample or positive control EDTA.

[3] = Lipid oxidation in linoleic acid model system, ferric thiocyanate (FTC) method; conditions: positive control 0.2 mg/mL; after four days incubation at 40 °C; 500 nm; mean of three independent experiments
Protocol: The inhibition of lipid peroxidation by the EYPH fractions was measured using linoleic acid oxidized as described below. The degree of oxidation was measured using (FTC) and (TBARS) methods. In order to prepare the reaction mixture, 50 mg of each sample was dissolved individually with 10 mL absolute ethanol, 0.13 mL linoleic acid, 4.87 mL distilled water and 10 mL 50 mM sodium phosphate buffer (pH 7). Samples were homogenized by a sonicator (Labsonic® M, B. Braun Biotech International, Melsungen, Germany). The tubes were then sealed tightly with silicone rubber caps and kept in the dark at 40 °C in an oven. […] A negative control was prepared in the same manner using distilled water in place of egg yolk hydrolysates. […] After exactly 3 min, the absorbance of the resulting ferric thiocyanate solution was read at 500 nm using a spectrophotometer (Kontron Instrument UNIKON 860, Cambridge, UK). […] The absorbance of the upper layer was measured at 532 nm using a spectrophotometer (Kontron Instrument UNIKON 860) Malonaldehyde standard curve was prepared using 1,1,3,3-tetramethoxypropane and TBARS were expressed as μg of malonaldehyde/mL. The percentage (%) of lipid oxidation inhibition was calculated according to the following formula: Lipid oxidation inhibition (%)=Absorbance of control − Absorbance of sample/Absorbance of control×100

[4] = Lipid oxidation in linoleic acid model system, TBARS method; conditions: positive control 0.2 mg/mL; after four days incubation at 40 °C; 532 nm; mean of three independent experiments
Protocol: The inhibition of lipid peroxidation by the EYPH fractions was measured using linoleic acid oxidized as described below. The degree of oxidation was measured using (FTC) and (TBARS) methods. In order to prepare the reaction mixture, 50 mg of each sample was dissolved individually with 10 mL absolute ethanol, 0.13 mL linoleic acid, 4.87 mL distilled water and 10 mL 50 mM sodium phosphate buffer (pH 7). Samples were homogenized by a sonicator (Labsonic® M, B. Braun Biotech International, Melsungen, Germany). The tubes were then sealed tightly with silicone rubber caps and kept in the dark at 40 °C in an oven. […] A negative control was prepared in the same manner using distilled water in place of egg yolk hydrolysates. The commercial antioxidants, 0.2 mg/mL of BHT and trolox were also used as positive controls. […] The absorbance of the upper layer was measured at 532 nm using a spectrophotometer (Kontron Instrument UNIKON 860) Malonaldehyde standard curve was prepared using 1,1,3,3-tetramethoxypropane and TBARS were expressed as μg of malonaldehyde/mL. The percentage (%) of lipid oxidation inhibition was calculated according to the following formula: Lipid oxidation inhibition (%)=Absorbance of control − Absorbance of sample/Absorbance of control×100

[5] = DPPH radical scavenging activity; conditions: for DPPH Scavenging activity: standard 0.2 mg/mL, 60 min, room temperature, dark, 517 nm, mean ± SD of three independent experiments; for Antioxidant activity (DPPH scavenging) of peptide compared with synthetic antioxidant: peptide 10 mg/mL versus 0.2 mg/mL BHT (Figure 7), abstract prints BHA
Protocol: The method used was in accordance with Bersuder et al. using the synthetic free radical DPPH. Briefly, a volume of 500 μL of selected fractions at different concentrations (0.5, 1, 5, 10 and 20 mg/mL) was mixed with 500 μL of 99.5% ethanol and 125 μL of 0.02% w/v DPPH prepared previously in 99.5% ethanol. The mixture was shaken vigorously then kept at room temperature in the dark. After 60 min, the color reduction of the DPPH substrate was measured at an absorbance of 517 nm. Trolox and BHT (both used at concentration 0.2 mg/mL) were also tested as positive controls for comparison. The DPPH radical scavenging activity was calculated as follows: Radical scavenging activity (%)=AC−AS/AC×100 where AC is the absorbance for negative control using 500 μL deionized water instead of sample, AS is the absorbance of the sample or positive controls (trolox/BHT). A lower absorbance of the reaction mixture indicated a higher DPPH radical-scavenging activity.

[6] = Hydroxyl radical scavenging activity (HRSA) assay; conditions: standard 0.2 mg/mL, 37 °C 1 h, pH 7.4, 532 nm, mean ± SD of three independent experiments
Protocol: The HRSA assay was performed as described by Wu et al.. The reaction mixture consisted of 0.1 mL of 10 mM FeSO4, 0.1 mL of 10 mM EDTA, 0.5 mL of 10 mM α-deoxyribose, 0.9 mL sodium phosphate buffer pH 7.4, and 0.2 mL of peptides at different concentrations (0.5, 1, 5, 10 and 20 mg/mL). All reagents were then thoroughly mixed in a tube and 0.2 mL of 10 mM hydrogen peroxide was added. The reaction mixture was then incubated at 37 °C for 1 h. Following incubation, 1 mL of 2.8% TCA and 1 mL of 1.0% TBA were added to the test tubes, and the contents boiled for 15 min. After cooling at room temperature, the absorbance of the mixture was measured at 532 nm. Trolox and BHT (both used at concentration 0.2 mg/mL) were also tested as positive controls for comparison. The HRSA was evaluated as a percentage of α-deoxyribose oxidation inhibition by the hydroxyl radical and calculated as follows: HRSA (%)=AC−AS/AC×100 where AC is the absorbance for negative control using 500 μL deionized water instead of sample, AS is the absorbance of the sample or positive controls (trolox/BHT).

[7] = Superoxide anion scavenging activity (pyrogallol autoxidation); conditions: standard 0.2 mg/mL, Tris-HCl pH 8.2, 25 °C, 320 nm, mean ± SD of three independent experiments
Protocol: In this assay, the alkaline condition enhances the autoxidation of pyrogallol to produce a superoxide anion, which, in turn, accelerates the autoxidation process by autocatalysis. The autoxidation of a pyrogallol method described by Marklund and Marklund was applied to measure the superoxide anion scavenging power of egg yolk peptides. The reaction mixture consisted of 1.0 mL of peptides sample at different concentrations ([…], 5.0, 10 and 20 mg/mL) and 1.8 mL of 50 mM Tris-HCl buffer, previously adjusted to pH 8.2. The mixture was incubated at 25 °C for 20 min. Then, 40 μL of 45 mM pyrogallol (prepared previously in 10 mM HCl) was added. The absorbance of the reaction mixture was measured at 320 nm immediately after adding pyrogallol at 1 min intervals up to 4 min. Trolox and BHT (both used at a concentration of 0.2 mg/mL) were also tested as positive controls for comparison.

Chain of angiotensin converting enzyme (ACE) (P12821 30-1306, species assumed): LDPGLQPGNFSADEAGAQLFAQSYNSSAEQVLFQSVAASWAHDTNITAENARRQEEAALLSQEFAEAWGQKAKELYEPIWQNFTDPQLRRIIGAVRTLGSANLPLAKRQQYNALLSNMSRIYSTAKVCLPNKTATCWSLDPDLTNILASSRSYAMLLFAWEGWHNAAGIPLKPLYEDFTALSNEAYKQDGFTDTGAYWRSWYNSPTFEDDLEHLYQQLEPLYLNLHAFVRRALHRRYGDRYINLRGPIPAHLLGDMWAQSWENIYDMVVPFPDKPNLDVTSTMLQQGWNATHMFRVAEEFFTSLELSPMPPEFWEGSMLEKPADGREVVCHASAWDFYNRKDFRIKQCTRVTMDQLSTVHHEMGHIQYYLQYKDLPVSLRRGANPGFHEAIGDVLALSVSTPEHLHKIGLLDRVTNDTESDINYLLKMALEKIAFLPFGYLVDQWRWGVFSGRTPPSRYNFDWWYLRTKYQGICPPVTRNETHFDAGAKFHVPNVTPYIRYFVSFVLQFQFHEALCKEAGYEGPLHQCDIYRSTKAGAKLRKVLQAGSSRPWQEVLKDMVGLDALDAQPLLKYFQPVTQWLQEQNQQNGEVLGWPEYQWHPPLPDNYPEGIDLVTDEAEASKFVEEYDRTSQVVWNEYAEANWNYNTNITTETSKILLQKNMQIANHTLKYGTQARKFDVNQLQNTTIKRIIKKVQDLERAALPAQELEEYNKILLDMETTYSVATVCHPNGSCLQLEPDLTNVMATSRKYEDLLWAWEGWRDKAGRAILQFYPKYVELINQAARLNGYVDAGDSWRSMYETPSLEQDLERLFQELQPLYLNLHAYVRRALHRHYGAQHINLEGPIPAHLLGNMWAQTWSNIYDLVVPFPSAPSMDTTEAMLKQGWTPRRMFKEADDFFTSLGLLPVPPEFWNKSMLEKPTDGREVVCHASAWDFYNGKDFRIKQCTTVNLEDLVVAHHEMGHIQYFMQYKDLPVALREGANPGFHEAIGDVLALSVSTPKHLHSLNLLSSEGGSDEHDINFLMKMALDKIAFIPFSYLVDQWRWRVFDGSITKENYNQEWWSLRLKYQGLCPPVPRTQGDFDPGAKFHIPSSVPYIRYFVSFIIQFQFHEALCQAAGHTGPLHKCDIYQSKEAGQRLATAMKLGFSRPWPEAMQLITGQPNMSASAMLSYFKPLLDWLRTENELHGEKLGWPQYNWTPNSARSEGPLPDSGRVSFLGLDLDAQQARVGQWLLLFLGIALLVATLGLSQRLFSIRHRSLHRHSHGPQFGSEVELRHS

YPSPV
ACE inhibitory activity of synthesized peptide compared with captopril [1]: higher ACE inhibitory activity compared with captopril

O=C(O)CN(CCN(CC(=O)O)CC(=O)O)CC(=O)O [EDTA]
Fe2+ chelating activity [2]: 97.54% ± 1.79%

Cc1c(C)c2c(c(C)c1O)CCC(C)(C(=O)O)O2 (centres unmarked) [Trolox, trolox]
Lipid Oxidation (%), FTC method [3]: 32.2% | Lipid Oxidation (%), TBARS method [4]: 28.7% | DPPH Scavenging activity [5]: 38.5% | DPPH Scavenging activity ([5]; SD): 38.46% ± 1.43% | Hydroxyl radical scavenging activity [6]: 70.03% ± 3.48% | Superoxide anion scavenging activity [7]: 63.48% ± 1.63%

KLSDW
Antioxidant activity (DPPH scavenging) of peptide compared with synthetic antioxidant [5]: not significantly different from the synthetic BHA antioxidant

WYGPD
Antioxidant activity (DPPH scavenging) of peptide compared with synthetic antioxidant [5]: not significantly different from the synthetic BHA antioxidant

Cc1cc(C(C)(C)C)c(O)c(C(C)(C)C)c1 [BHT, butylated hydroxyltoluene]
Lipid Oxidation (%), FTC method [3]: 23.3% | Lipid Oxidation (%), TBARS method [4]: 26.1% | DPPH Scavenging activity [5]: 23.6% | DPPH Scavenging activity ([5]; SD): 23.60% ± 1.66% | Hydroxyl radical scavenging activity [6]: 58.97% ± 1.02% | Superoxide anion scavenging activity [7]: 67.45% ± 1.67%

SDNRNQGY
ACE inhibitory activity of synthesized peptide compared with captopril [1]: not significantly different from that of the positive control captopril
